Data published in US8178570B2, “Tie-2 modulators and methods of use” (Exelixis, Inc., priority 2003, dated 2012).

Molecular target: Tie-2 (Homo sapiens, UniProt Q02763)
Test: Tie-2 tyrosine kinase activity: kinase-dependent ATP consumption (pEY substrate, luciferase/luciferin chemiluminescence) or 33P-ATP incorporation into substrate
Assay type: biochemical
Conditions: Tie-2 (human enzyme) inhibition, Table 2, class symbols A-D
Outline: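 Tie-2 kinase activity is read either as ATP consumption with pEY substrate by luciferase/luciferin chemiluminescence, or as 33P incorporation from 33P-ATP into plate-adsorbed substrate by scintillation counting. IC50 values are binned as A <50 nM, B >50–1000 nM, C >1000–<10,000 nM, and D ≥10,000 nM.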

Chain of Tie-2 (Q02763 23-1124): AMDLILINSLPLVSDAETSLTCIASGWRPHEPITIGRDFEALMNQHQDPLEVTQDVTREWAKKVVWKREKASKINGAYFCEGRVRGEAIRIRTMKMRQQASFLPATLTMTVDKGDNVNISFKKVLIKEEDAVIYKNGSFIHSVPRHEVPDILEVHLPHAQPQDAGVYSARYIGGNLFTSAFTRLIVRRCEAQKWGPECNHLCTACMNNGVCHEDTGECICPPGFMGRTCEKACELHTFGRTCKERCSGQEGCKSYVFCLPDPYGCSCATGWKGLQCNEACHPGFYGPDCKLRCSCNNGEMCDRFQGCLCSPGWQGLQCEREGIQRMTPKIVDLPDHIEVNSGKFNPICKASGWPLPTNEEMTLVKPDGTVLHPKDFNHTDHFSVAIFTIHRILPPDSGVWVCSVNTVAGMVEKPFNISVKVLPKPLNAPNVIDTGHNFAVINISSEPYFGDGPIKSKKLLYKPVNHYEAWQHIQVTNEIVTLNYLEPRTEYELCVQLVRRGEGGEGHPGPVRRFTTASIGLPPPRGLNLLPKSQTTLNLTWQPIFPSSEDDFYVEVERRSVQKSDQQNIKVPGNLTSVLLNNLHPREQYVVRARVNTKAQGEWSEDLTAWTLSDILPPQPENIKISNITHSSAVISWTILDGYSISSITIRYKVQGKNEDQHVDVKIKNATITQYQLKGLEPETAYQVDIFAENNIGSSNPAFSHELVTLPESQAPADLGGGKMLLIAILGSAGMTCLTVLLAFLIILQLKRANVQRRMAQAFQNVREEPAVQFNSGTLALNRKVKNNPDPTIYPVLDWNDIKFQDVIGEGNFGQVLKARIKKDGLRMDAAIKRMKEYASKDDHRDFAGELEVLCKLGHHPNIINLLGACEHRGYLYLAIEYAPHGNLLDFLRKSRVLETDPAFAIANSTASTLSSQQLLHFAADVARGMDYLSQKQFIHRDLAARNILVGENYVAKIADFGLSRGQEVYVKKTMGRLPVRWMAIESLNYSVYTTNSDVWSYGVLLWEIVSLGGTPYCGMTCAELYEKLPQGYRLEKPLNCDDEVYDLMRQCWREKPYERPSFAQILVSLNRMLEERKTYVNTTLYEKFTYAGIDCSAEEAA

**Q.** For `COc1ccc(-c2nc(-c3ccncc3)nn2CCN(C(=O)Nc2ccc(Oc3ccccc3)cc2)C2CCCC2)cc1Cl` [Entry 147, N-(2-{5-[3-chloro-4-(methyloxy)phenyl]-3-pyridin-4-yl-1H-1,2,4-triazol-1-yl}ethyl)-N-cyclopentyl-N′-[4-(phenyloxy)phenyl]urea], which IC50 is on record?
**A.** The IC50 was ≥ 10 µM.

**Q.** Which IC50 does the source give for `COc1ccc(-c2nc(-c3ccncc3)nn2CCN(C(=O)Nc2c(C)cc(C)cc2C)C2CCCC2)cc1Cl` [Entry 148, N-(2-{5-[3-chloro-4-(methyloxy)phenyl]-3-pyridin-4-yl-1H-1,2,4-triazol-1-yl}ethyl)-N-cyclopentyl-N′-(2,4,6-trimethylphenyl)urea] here?
**A.** The IC50 was ≥ 10 µM.

**Q.** Which IC50 does the source give for `COc1ccc(-c2nc(-c3ccncc3)nn2CCN(C(=O)Nc2cc(Cl)ccc2C)C2CCCC2)cc1Cl` [Entry 149, N-(2-{5-[3-chloro-4-(methyloxy)phenyl]-3-pyridin-4-yl-1H-1,2,4-triazol-1-yl}ethyl)-N′-(5-chloro-2-methylphenyl)-N-cyclopentylurea] here?
**A.** Its IC50 is 1 to 10 µM.

**Q.** `COc1ccc(-c2nc(-c3ccncc3)nn2CCN(C(=O)Nc2ccc(Cl)cc2C)C2CCCC2)cc1Cl` [Entry 150, N-(2-{5-[3-chloro-4-(methyloxy)phenyl]-3-pyridin-4-yl-1H-1,2,4-triazol-1-yl}ethyl)-N′-(4-chloro-2-methylphenyl)-N-cyclopentylurea] was tested. Which IC50 did it give?
**A.** Its IC50 is 1 to 10 µM.

**Q.** Which IC50 does the source give for `COc1ccc(-c2nc(-c3ccncc3)nn2CCN(C(=O)Nc2c(C)cccc2Cl)C2CCCC2)cc1Cl` [Entry 151, N-(2-{5-[3-chloro-4-(methyloxy)phenyl]-3-pyridin-4-yl-1H-1,2,4-triazol-1-yl}ethyl)-N′-(2-chloro-6-methylphenyl)-N-cyclopentylurea] here?
**A.** Its IC50 is ≥ 10 µM.

**Q.** `COc1ccc(-c2nc(-c3ccncc3)nn2CCN(C(=O)Nc2cccc(Cl)c2C)C2CCCC2)cc1Cl` [Entry 152, N-(2-{5-[3-chloro-4-(methyloxy)phenyl]-3-pyridin-4-yl-1H-1,2,4-triazol-1-yl}ethyl)-N′-(3-chloro-2-methylphenyl)-N-cyclopentylurea] was tested. Which IC50 did it give?
**A.** Its IC50 is 0.05 to 1 µM.

**Q.** Which IC50 does the source give for `COc1ccc(-c2nc(-c3ccncc3)nn2CCN(C(=O)Nc2ccc(F)c(Cl)c2)C2CCCC2)cc1Cl` [Entry 153, N′-(3-chloro-4-fluorophenyl)-N-(2-{5-[3-chloro-4-(methyloxy)phenyl]-3-pyridin-4-yl-1H-1,2,4-triazol-1-yl}ethyl)-N-cyclopentylurea] here?
**A.** Its IC50 is ≥ 10 µM.

**Q.** How did the IC50 turn out when `COc1ccc(-c2nc(-c3ccncc3)nn2CCN(C(=O)Nc2ccccc2SC)C2CCCC2)cc1Cl` [Entry 154, N-(2-{5-[3-chloro-4-(methyloxy)phenyl]-3-pyridin-4-yl-1H-1,2,4-triazol-1-yl}ethyl)-N-cyclopentyl-N′-[2-(methylthio)phenyl]urea] was run?
**A.** Its IC50 is ≥ 10 µM.

**Q.** With `COc1ccc(-c2nc(-c3ccncc3)nn2CCN(C(=O)Nc2cccc(C(F)(F)F)c2)C2CCCC2)cc1Cl` [Entry 155, N-(2-{5-[3-chloro-4-(methyloxy)phenyl]-3-pyridin-4-yl-1H-1,2,4-triazol-1-yl}ethyl)-N-cyclopentyl-N′-[3-(trifluoromethyl)phenyl]urea] as the molecule, how does the IC50 read?
**A.** Its IC50 is ≥ 10 µM.

**Q.** How did the IC50 turn out when `C=CCNC(=O)N(CCn1nc(-c2ccncc2)nc1-c1ccc(OC)c(Cl)c1)C1CCCC1` [Entry 156, N-(2-{5-[3-chloro-4-(methyloxy)phenyl]-3-pyridin-4-yl-1H-1,2,4-triazol-1-yl}ethyl)-N-cyclopentyl-N′-prop-2-en-1-ylurea] was run?
**A.** The IC50 was ≥ 10 µM.

**Q.** How did the IC50 turn out when `COc1ccc(-c2nc(-c3ccncc3)nn2CCN(C(=O)Nc2ccccc2C(C)C)C2CCCC2)cc1Cl` [Entry 157, N-(2-{5-[3-chloro-4-(methyloxy)phenyl]-3-pyridin-4-yl-1H-1,2,4-triazol-1-yl}ethyl)-N-cyclopentyl-N′-[2-(1-methylethyl)phenyl]urea] was run?
**A.** Its IC50 is ≥ 10 µM.

**Q.** How did the IC50 turn out when `COc1ccc(-c2nc(-c3ccncc3)nn2CCN(C(=O)Nc2cc(F)ccc2C)C2CCCC2)cc1Cl` [Entry 158, N-(2-{5-[3-chloro-4-(methyloxy)phenyl]-3-pyridin-4-yl-1H-1,2,4-triazol-1-yl}ethyl)-N-cyclopentyl-N′-(5-fluoro-2-methylphenyl)urea] was run?
**A.** Its IC50 is 1 to 10 µM.

**Q.** With `COc1ccc(-c2nc(-c3ccncc3)nn2CCN(C(=O)Nc2ccc(F)c(F)c2)C2CCCC2)cc1Cl` [Entry 159, N-(2-{5-[3-chloro-4-(methyloxy)phenyl]-3-pyridin-4-yl-1H-1,2,4-triazol-1-yl}ethyl)-N-cyclopentyl-N′-(3,4-difluorophenyl)urea] as the molecule, how does the IC50 read?
**A.** The IC50 was 1 to 10 µM.

**Q.** Which IC50 does the source give for `Cc1nc(-c2ccncc2)nn1CCN(CCN1CCOCC1)C(=O)Cc1cccc2ccccc12` [Entry 160, N-[2-(5-methyl-3-pyridin-4-yl-1H-1,2,4-triazol-1-yl)ethyl]-N-(2-morpholin-4-ylethyl)-2-naphthalen-1-ylacetamide] here?
**A.** Its IC50 is ≥ 10 µM.

**Q.** `CNc1nccc(-c2nc(C)n(CCN(C(=O)Cc3cccc4ccccc34)C3CCCC3)n2)n1` [Entry 161, N-cyclopentyl-N-(2-{5-methyl-3-[2-(methylamino)pyrimidin-4-yl]-1H-1,2,4-triazol-1-yl}ethyl)-2-naphthalen-1-ylacetamide] was tested. Which IC50 did it give?
**A.** The IC50 was ≥ 10 µM.

**Q.** Which IC50 does the source give for `Cc1nc(-c2ccc3nsnc3c2)nn1CCN(C(=O)Cc1cccc2ccccc12)C1CCCC1` [Entry 162, N-{2-[3-(2,1,3-benzothiadiazol-5-yl)-5-methyl-1H-1,2,4-triazol-1-yl]ethyl}-N-cyclopentyl-2-naphthalen-1-ylacetamide] here?
**A.** Its IC50 is 0.05 to 1 µM.

**Q.** How did the IC50 turn out when `Cc1nc(-c2ccnc(N3CCOCC3)c2)nn1CCN(C(=O)Cc1cccc2ccccc12)C1CCCC1` [Entry 163, N-cyclopentyl-N-{2-[5-methyl-3-(2-morpholin-4-ylpyridin-4-yl)-1H-1,2,4-triazol-1-yl]ethyl}-2-naphthalen-1-ylacetamide] was run?
**A.** Its IC50 is 1 to 10 µM.

**Q.** With `Cc1nc(-c2ccnc(NCCN(C)C)c2)nn1CCN(C(=O)Cc1cccc2ccccc12)C1CCCC1` [Entry 164, N-cyclopentyl-N-{2-[3-(2-{[2-(dimethylamino)ethyl]amino}pyridin-4-yl)-5-methyl-1H-1,2,4-triazol-1-yl]ethyl}-2-naphthalen-1-ylacetamide] as the molecule, how does the IC50 read?
**A.** Its IC50 is 0.05 to 1 µM.

**Q.** With `Cc1nc(-c2ccnc(Nc3ccccc3)c2)nn1CCN(C(=O)Cc1cccc2ccccc12)C1CCCC1` [Entry 165, N-cyclopentyl-N-(2-{5-methyl-3-[2-(phenylamino)pyridin-4-yl]-1H-1,2,4-triazol-1-yl}ethyl)-2-naphthalen-1-ylacetamide] as the molecule, how does the IC50 read?
**A.** The IC50 was 0.05 to 1 µM.

**Q.** How did the IC50 turn out when `CCNc1cc(-c2nc(C)n(CCN(C(=O)Cc3cccc4ccccc34)C3CCCC3)n2)ccn1` [Entry 166, N-cyclopentyl-N-(2-{3-[2-(ethylamino)pyridin-4-yl]-5-methyl-1H-1,2,4-triazol-1-yl}ethyl)-2-naphthalen-1-ylacetamide] was run?
**A.** The IC50 was < 0.05 µM.

**Q.** For `CNc1cc(-c2nc(C)n(CCN(C(=O)Cc3cccc4ccccc34)C3CCCC3)n2)ccn1` [Entry 167, N-cyclopentyl-N-(2-{5-methyl-3-[2-(methylamino)pyridin-4-yl]-1H-1,2,4-triazol-1-yl}ethyl)-2-naphthalen-1-ylacetamide], which IC50 is on record?
**A.** The IC50 was < 0.05 µM.

**Q.** How did the IC50 turn out when `Cc1nc(-c2ccncc2)nn1CCN(C(=O)Cc1cccc2ccccc12)C1CC1` [Entry 168, N-cyclopropyl-N-[2-(5-methyl-3-pyridin-4-yl-1H-1,2,4-triazol-1-yl)ethyl]-2-naphthalen-1-ylacetamide] was run?
**A.** The IC50 was 0.05 to 1 µM.

**Q.** With `Cc1nc(-c2ccncc2)nn1CCN(CCN1CCCC1)C(=O)Cc1cccc2ccccc12` [Entry 169, N-[2-(5-methyl-3-pyridin-4-yl-1H-1,2,4-triazol-1-yl)ethyl]-2-naphthalen-1-yl-N-(2-pyrrolidin-1-ylethyl)acetamide] as the molecule, how does the IC50 read?
**A.** The IC50 was ≥ 10 µM.

**Q.** For `Cc1nc(-c2ccncc2)nn1CCN(CCN(C)C)C(=O)Cc1cccc2ccccc12` [Entry 170, N-[2-(dimethylamino)ethyl]-N-[2-(5-methyl-3-pyridin-4-yl-1H-1,2,4-triazol-1-yl)ethyl]-2-naphthalen-1-ylacetamide], which IC50 is on record?
**A.** Its IC50 is 1 to 10 µM.

**Q.** Which IC50 does the source give for `Cc1nc(-c2ccncc2)nn1CCN(C(=O)Cc1cccc2ccccc12)C1CCOCC1` [Entry 171, N-[2-(5-methyl-3-pyridin-4-yl-1H-1,2,4-triazol-1-yl)ethyl]-2-naphthalen-1-yl-N-(tetrahydro-2H-pyran-4-yl)acetamide] here?
**A.** Its IC50 is 0.05 to 1 µM.

**Q.** For `Cc1nc(-c2ccnc(NCc3ccccc3)c2)nn1CCN(C(=O)Cc1cccc2ccccc12)C1CCCC1` [Entry 172, N-cyclopentyl-N-[2-(5-methyl-3-{2-[(phenylmethyl)amino]pyridin-4-yl}-1H-1,2,4-triazol-1-yl)ethyl]-2-naphthalen-1-ylacetamide], which IC50 is on record?
**A.** Its IC50 is 0.05 to 1 µM.

**Q.** With `CCCCNc1cc(-c2nc(C)n(CCN(C(=O)Cc3cccc4ccccc34)C3CCCC3)n2)ccn1` [Entry 173, N-(2-{3-[2-(butylamino)pyridin-4-yl]-5-methyl-1H-1,2,4-triazol-1-yl}ethyl)-N-cyclopentyl-2-naphthalen-1-ylacetamide] as the molecule, how does the IC50 read?
**A.** The IC50 was < 0.05 µM.

**Q.** `Cc1nc(-c2ccnc(NCCN3CCOCC3)c2)nn1CCN(C(=O)Cc1cccc2ccccc12)C1CCCC1` [Entry 174, N-cyclopentyl-N-[2-(5-methyl-3-{2-[(2-morpholin-4-ylethyl)amino]pyridin-4-yl}-1H-1,2,4-triazol-1-yl)ethyl]-2-naphthalen-1-ylacetamide] was tested. Which IC50 did it give?
**A.** The IC50 was < 0.05 µM.

**Q.** For `COCCNc1cc(-c2nc(C)n(CCN(C(=O)Cc3cccc4ccccc34)C3CCCC3)n2)ccn1` [Entry 175, N-cyclopentyl-N-{2-[5-methyl-3-(2-{[2-(methyloxy)ethyl]amino}pyridin-4-yl)-1H-1,2,4-triazol-1-yl]ethyl}-2-naphthalen-1-ylacetamide], which IC50 is on record?
**A.** The IC50 was < 0.05 µM.

**Q.** For `Cc1nc(-c2ccnc(N)c2)nn1CCN(C(=O)Cc1cccc2ccccc12)C1CCCC1` [Entry 176, N-{2-[3-(2-aminopyridin-4-yl)-5-methyl-1H-1,2,4-triazol-1-yl]ethyl}-N-cyclopentyl-2-naphthalen-1-ylacetamide], which IC50 is on record?
**A.** Its IC50 is < 0.05 µM.

**Q.** For `Cc1nc(-c2ccncc2)nn1CCN(C(=O)Cc1cccc2ccccc12)C(C)C` [Entry 177, N-(1-methylethyl)-N-[2-(5-methyl-3-pyridin-4-yl-1H-1,2,4-triazol-1-yl)ethyl]-2-naphthalen-1-ylacetamide], which IC50 is on record?
**A.** Its IC50 is < 0.05 µM.
